Data reported in patent US20250154109A1, “SODIUM CHANNEL BLOCKING COMPOUNDS, DERIVATIVES THEREOF, AND METHODS OF THEIR USE” (LATIGO BIOTHERAPEUTICS, INC, priority 2022, published 2025).
Structures can show the parent of a compound that is named as a salt. Where two headings read alike, the source gives them in different places.

Biological target: human Nav1.8 (Homo sapiens, UniProt Q9Y5Y9)
Experiment: SyncroPatch384PE assay (automated patch clamp)
Assay type: cell-based
Settings: human Nav1.8/b3 CHO cells
[1] = inactivated state block (P2 measurement), read-out: P2 IC50
[2] = resting state block (P1 measurement), read-out: P1 IC50

human Nav1.8, sequence (Q9Y5Y9 whole entry): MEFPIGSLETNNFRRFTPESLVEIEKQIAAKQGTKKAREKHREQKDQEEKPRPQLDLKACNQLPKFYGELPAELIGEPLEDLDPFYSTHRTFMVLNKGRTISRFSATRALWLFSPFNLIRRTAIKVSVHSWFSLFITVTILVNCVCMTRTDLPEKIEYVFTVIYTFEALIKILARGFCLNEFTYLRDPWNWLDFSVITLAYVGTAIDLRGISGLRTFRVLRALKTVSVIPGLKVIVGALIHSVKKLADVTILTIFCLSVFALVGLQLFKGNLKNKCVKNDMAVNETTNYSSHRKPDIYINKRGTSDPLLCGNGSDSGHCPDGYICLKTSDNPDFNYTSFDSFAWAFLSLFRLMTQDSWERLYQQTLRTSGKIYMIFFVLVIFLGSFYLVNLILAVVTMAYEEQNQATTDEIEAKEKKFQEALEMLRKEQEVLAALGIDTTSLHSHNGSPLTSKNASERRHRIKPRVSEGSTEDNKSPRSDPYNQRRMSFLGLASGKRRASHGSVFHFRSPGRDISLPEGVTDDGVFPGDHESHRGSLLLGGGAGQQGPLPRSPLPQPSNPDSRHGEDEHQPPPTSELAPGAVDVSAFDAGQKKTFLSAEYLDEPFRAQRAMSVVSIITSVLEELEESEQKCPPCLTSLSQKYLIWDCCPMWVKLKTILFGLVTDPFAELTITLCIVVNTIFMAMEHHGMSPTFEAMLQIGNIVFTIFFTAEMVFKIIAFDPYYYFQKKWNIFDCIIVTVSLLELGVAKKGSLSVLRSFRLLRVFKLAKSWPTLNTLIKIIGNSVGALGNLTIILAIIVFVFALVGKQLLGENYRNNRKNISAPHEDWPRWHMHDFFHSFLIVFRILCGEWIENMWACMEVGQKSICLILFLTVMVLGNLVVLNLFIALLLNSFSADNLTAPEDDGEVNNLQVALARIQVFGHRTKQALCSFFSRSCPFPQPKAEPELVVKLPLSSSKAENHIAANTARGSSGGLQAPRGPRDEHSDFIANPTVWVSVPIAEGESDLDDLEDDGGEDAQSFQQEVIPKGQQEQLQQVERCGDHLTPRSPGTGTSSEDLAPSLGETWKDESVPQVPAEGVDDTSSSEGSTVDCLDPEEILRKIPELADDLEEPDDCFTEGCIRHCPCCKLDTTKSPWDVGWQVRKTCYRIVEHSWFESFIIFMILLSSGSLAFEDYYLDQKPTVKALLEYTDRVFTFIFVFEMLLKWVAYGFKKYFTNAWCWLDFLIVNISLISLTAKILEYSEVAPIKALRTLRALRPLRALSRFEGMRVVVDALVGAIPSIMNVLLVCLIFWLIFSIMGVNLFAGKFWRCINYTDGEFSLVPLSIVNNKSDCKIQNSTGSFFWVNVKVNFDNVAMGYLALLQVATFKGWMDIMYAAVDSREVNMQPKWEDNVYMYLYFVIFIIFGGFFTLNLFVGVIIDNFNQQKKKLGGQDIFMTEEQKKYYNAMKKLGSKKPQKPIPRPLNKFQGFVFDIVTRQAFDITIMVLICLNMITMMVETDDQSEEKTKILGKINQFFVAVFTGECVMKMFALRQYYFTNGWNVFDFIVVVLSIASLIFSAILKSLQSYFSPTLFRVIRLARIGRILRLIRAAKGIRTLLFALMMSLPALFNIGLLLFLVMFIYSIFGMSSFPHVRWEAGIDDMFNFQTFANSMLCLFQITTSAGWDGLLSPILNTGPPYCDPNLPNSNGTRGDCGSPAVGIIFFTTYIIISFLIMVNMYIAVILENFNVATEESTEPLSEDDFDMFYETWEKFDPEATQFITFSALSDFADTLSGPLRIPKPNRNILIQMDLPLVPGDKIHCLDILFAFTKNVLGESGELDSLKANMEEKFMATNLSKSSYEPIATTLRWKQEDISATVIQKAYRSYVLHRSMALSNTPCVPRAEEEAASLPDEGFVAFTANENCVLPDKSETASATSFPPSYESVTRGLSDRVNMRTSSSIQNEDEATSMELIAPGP

Row | Structure (SMILES) | IC50 [1] [nM] | IC50 [2] [nM]
1 | Cc1c(-c2cnn(C)c2)cnc(N2CCCC(F)(F)CC2)c1C(=O)Nc1cccc([S@@](C)(=O)=NCCN)c1 [Example 210, (R)-N-(3-(N-(2-aminoethyl)-S-methylsulfonimidoyl)phenyl)-2-(4,4-difluoroazepan-1-yl)-4-methyl-5-(1-methyl-1H-pyrazol-4-yl)nicotinamide 2,2,2-trifluoroacetate] | 5 to 50 | 5 to 50
2 | Cc1c(Cl)c(-c2cnn(C)c2)nc(N2CCCC(F)(F)CC2)c1C(=O)Nc1ccnc([S@](C)(=N)=O)c1 [Example 212, (R)-5-chloro-2-(4,4-difluoroazepan-1-yl)-4-methyl-6-(1-methyl-1H-pyrazol-4-yl)-N-(2-(S-methylsulfonimidoyl)pyridin-4-yl)nicotinamide] | 5 to 50 | 5 to 50
3 | Cc1c(-c2cnn(C)c2)cnc(N2CCCC(F)(F)CC2)c1C(=O)Nc1ccc(F)c([S@@](C)(=N)=O)c1 [Example 213, (S)-2-(4,4-difluoroazepan-1-yl)-N-(4-fluoro-3-(S-methylsulfonimidoyl)phenyl)-4-methyl-5-(1-methyl-1H-pyrazol-4-yl)nicotinamide] | 100 to 200 | 100 to 200
4 | Cc1c(-c2cnn(C)c2)cnc(N2CCCC(F)(F)CC2)c1C(=O)Nc1ccc(F)c([S@](C)(=N)=O)c1 [Example 214, (R)-2-(4,4-difluoroazepan-1-yl)-N-(4-fluoro-3-(S-methylsulfonimidoyl)phenyl)-4-methyl-5-(1-methyl-1H-pyrazol-4-yl)nicotinamide] | 100 to 200 | 100 to 200
5 | C[S@@](=N)(=O)c1cccc(NC(=O)c2cc(Cl)c(C(F)(F)F)cc2N2CCO[C@H](C(F)(F)F)C2)c1 [Example 215, 5-chloro-N-(3-((R)—S-methylsulfonimidoyl)phenyl)-4-(trifluoromethyl)-2-((S)-2-(trifluoromethyl)morpholino)benzamide] | 5 to 50 | 5 to 50
6 | C[S@@](=N)(=O)c1cccc(NC(=O)c2cc(Cl)c(C(F)(F)F)cc2N2CCO[C@@H](C(F)(F)F)C2)c1 [Example 216, 5-chloro-N-(3-((R)—S-methylsulfonimidoyl)phenyl)-4-(trifluoromethyl)-2-((R)-2-(trifluoromethyl)morpholino)benzamide] | 50 to 100 | 50 to 100
7 | C[S@@](=N)(=O)c1cc(NC(=O)c2cc(Cl)c(C(F)(F)F)cc2N2CCO[C@@H](C(F)(F)F)C2)ccn1 [Example 217, 5-chloro-N-(2-((R)—S-methylsulfonimidoyl)pyridin-4-yl)-4-(trifluoromethyl)-2-((R)-2-(trifluoromethyl)morpholino)benzamide] | 50 to 100 | 50 to 100
8 | C[S@@](=N)(=O)c1cc(NC(=O)c2cc(Cl)c(C(F)(F)F)cc2N2CCO[C@H](C(F)(F)F)C2)ccn1 [Example 218, 5-chloro-N-(2-((R)—S-methylsulfonimidoyl)pyridin-4-yl)-4-(trifluoromethyl)-2-((S)-2-(trifluoromethyl)morpholino)benzamide] | 5 to 50 | 5 to 50
9 | Cc1ccc(-c2nnc(N3CCCC(F)(F)CC3)c(C(=O)Nc3cccc([S@](C)(=N)=O)c3)c2C)cc1 [Example 225, (R)-3-(4,4-difluoroazepan-1-yl)-5-methyl-N-(3-(S-methylsulfonimidoyl)phenyl)-6-(p-tolyl)pyridazine-4-carboxamide] | 5 to 50 | 5 to 50
10 | Cc1c(-c2cnn(C)c2)cnc(N2CCCC(F)(F)CC2)c1C(=O)Nc1cccc([S@@](C)(=O)=NC(=O)CO)c1 [Example 229, (R)-2-(4,4-difluoroazepan-1-yl)-N-(3-(N-(2-hydroxyacetyl)-S-methylsulfonimidoyl)phenyl)-4-methyl-5-(1-methyl-1H-pyrazol-4-yl)nicotinamide] | 5 to 50 | 5 to 50
11 | Cc1c(-c2cnn(C)c2)cnc(N2CCCC(F)(F)CC2)c1C(=O)Nc1cccc([S@@](C)(=O)=NC(=O)[C@@H](C)O)c1 [Example 230, 2-(4,4-difluoroazepan-1-yl)-N-(3-((R)-N-((R)-2-hydroxypropanoyl)-S-methylsulfonimidoyl)phenyl)-4-methyl-5-(1-methyl-1H-pyrazol-4-yl)nicotinamide] | 5 to 50 | 5 to 50
12 | Cc1c(-c2cnn(C)c2)cnc(N2CCCC(F)(F)CC2)c1C(=O)Nc1cccc([S@@](C)(=O)=NC(=O)[C@H](C)O)c1 [Example 231, 2-(4,4-difluoroazepan-1-yl)-N-(3-((R)-N-((S)-2-hydroxypropanoyl)-S-methylsulfonimidoyl)phenyl)-4-methyl-5-(1-methyl-1H-pyrazol-4-yl)nicotinamide] | 5 to 50 | 5 to 50
13 | Cc1c(C(F)(F)F)nnc(N2CCCC(F)(F)CC2)c1C(=O)Nc1cccc([S@@](C)(=O)=NC(=O)C(C)(C)N)c1 [Example 235, (R)-N-(3-(N-(2-amino-2-methylpropanoyl)-S-methylsulfonimidoyl)phenyl)-3-(4,4-difluoroazepan-1-yl)-5-methyl-6-(trifluoromethyl)pyridazine-4-carboxamide] | ≤ 5 | ≤ 5
14 | Cc1c(C(=O)Nc2cccc([S@@](C)(=O)=NC(=O)[C@@H](C)O)c2)c(N2CCCC(F)(F)CC2)nc(C(F)(F)F)c1-c1cnn(C)c1 [Example 236, 2-(4,4-difluoroazepan-1-yl)-N-(3-((R)-N-((R)-2-hydroxypropanoyl)-S-methylsulfonimidoyl)phenyl)-4-methyl-5-(1-methyl-1H-pyrazol-4-yl)-6-(trifluoromethyl)nicotinamide] | ≤ 5 | ≤ 5

Continued, values first:

Row | IC50 [1] [nM] | IC50 [2] [nM] | Structure (SMILES)
15 | ≤ 5 | ≤ 5 | Cc1c(Br)cnc(N2CCCC(F)(F)CC2)c1C(=O)Nc1cccc([S@@](C)(=O)=NCCN)c1 [Example 209, (R)-N-(3-(N-(2-aminoethyl)-S-methylsulfonimidoyl)phenyl)-5-bromo-2-(4,4-difluoroazepan-1-yl)-4-methylnicotinamide 2,2,2-trifluoroacetate]
16 | ≤ 5 | ≤ 5 | CNCCN=[S@](C)(=O)c1cccc(NC(=O)c2c(N3CCCC(F)(F)CC3)ncc(Br)c2C)c1 [Example 211, (R)-5-bromo-2-(4,4-difluoroazepan-1-yl)-4-methyl-N-(3-(S-methyl-N-(2-(methylamino)ethyl)sulfonimidoyl)phenyl)nicotinamide 2,2,2-trifluoroacetate]
17 | ≤ 5 | ≤ 5 | C[S@@](=N)(=O)c1cccc(NC(=O)c2cc(Cl)c(C(F)(F)F)cc2N2CCC(C(F)(F)F)CC2)c1 [Example 219, (R)-5-chloro-N-(3-(S-methylsulfonimidoyl)phenyl)-4-(trifluoromethyl)-2-(4-(trifluoromethyl)piperidin-1-yl)benzamide]
18 | ≤ 5 | ≤ 5 | C[S@@](=N)(=O)c1cccc(NC(=O)c2c(N3CCCC(F)(F)CC3)ncc(Cl)c2F)c1 [Example 226, (R)-5-chloro-2-(4,4-difluoroazepan-1-yl)-4-fluoro-N-(3-(S-methylsulfonimidoyl)phenyl)nicotinamide]
19 | ≤ 5 | ≤ 5 | Cc1c(C#N)c(C(F)(F)F)nc(N2CCCC(F)(F)CC2)c1C(=O)Nc1cccc([S@@](C)(=O)=NC(=O)C(C)(C)N)c1 [Example 227, (R)-N-(3-(N-(2-amino-2-methylpropanoyl)-S-methylsulfonimidoyl)phenyl)-5-cyano-2-(4,4-difluoroazepan-1-yl)-4-methyl-6-(trifluoromethyl)nicotinamide formate]
20 | ≤ 5 | ≤ 5 | CNCC(=O)N=[S@](C)(=O)c1cccc(NC(=O)c2cc(Cl)c(C(F)(F)F)cc2N2CCCC(F)(F)CC2)c1 [Example 228, (R)-5-chloro-2-(4,4-difluoroazepan-1-yl)-N-(3-(S-methyl-N-(methylglycyl)sulfonimidoyl)phenyl)-4-(trifluoromethyl)benzamide]
21 | ≤ 5 | ≤ 5 | Cc1c(C(F)(F)F)nnc(N2CCCC(F)(F)CC2)c1C(=O)Nc1cccc([S@@](C)(=O)=NC(=O)CO)c1 [Example 232, (R)-3-(4,4-difluoroazepan-1-yl)-N-(3-(N-(2-hydroxyacetyl)-S-methylsulfonimidoyl)phenyl)-5-methyl-6-(trifluoromethyl)pyridazine-4-carboxamide]
22 | ≤ 5 | ≤ 5 | Cc1c(C(F)(F)F)nnc(N2CCCC(F)(F)CC2)c1C(=O)Nc1cccc([S@@](C)(=O)=NC(=O)[C@H](C)O)c1 [Example 233, 3-(4,4-difluoroazepan-1-yl)-N-(3-((R)-N-((S)-2-hydroxypropanoyl)-S-methylsulfonimidoyl)phenyl)-5-methyl-6-(trifluoromethyl)pyridazine-4-carboxamide]
23 | ≤ 5 | ≤ 5 | Cc1c(C(F)(F)F)nnc(N2CCCC(F)(F)CC2)c1C(=O)Nc1cccc([S@@](C)(=O)=NC(=O)C2(N)CCC2)c1 [Example 234, (R)-N-(3-(N-(1-aminocyclobutane-1-carbonyl)-S-methylsulfonimidoyl)phenyl)-3-(4,4-difluoroazepan-1-yl)-5-methyl-6-(trifluoromethyl)pyridazine-4-carboxamide]
